# From PubChem BioAssay AID1259407 (Chemical Carcinogenesis Research Information System (CCRIS), 2018)
# The source made the active and inactive calls. No rule for the calls is given here.
# Test system: CCRIS mutagenicity, Ames/micronucleus/aberration tests
# Assay: CCRIS mutagenicity studies
# [1] = Test System: AMES SALMONELLA TYPHIMURIUM, Strain/Indicator: TA98, Metabolic Activation: NONE, Method: STANDARD PLATE
# [2] = Test System: AMES SALMONELLA TYPHIMURIUM, Strain/Indicator: TA98, Metabolic Activation: RAT, LIVER, S-9, AROCLOR 1254, Method: STANDARD PLATE
# [3] = Test System: AMES SALMONELLA TYPHIMURIUM, Strain/Indicator: TA98, Metabolic Activation: NONE, Method: PREINCUBATION
# [4] = Test System: AMES SALMONELLA TYPHIMURIUM, Strain/Indicator: TA100, Metabolic Activation: NONE, Method: PREINCUBATION
# [5] = Test System: AMES SALMONELLA TYPHIMURIUM, Strain/Indicator: TA100, Metabolic Activation: NONE, Method: STANDARD PLATE
# [6] = Test System: AMES SALMONELLA TYPHIMURIUM, Strain/Indicator: TA100, Metabolic Activation: RAT, LIVER, S-9, AROCLOR 1254, Method: STANDARD PLATE
smiles,measurement,setting,value
Cn1c([N+](=O)[O-])cnc1-c1nnc(N)s1,mutagenic call,"End Point: IN VITRO CHROMOSOMAL ABERRATIONS, Test System: HUMAN PERIPHERAL LYMPHOCYTES, Species: HUMAN, Strain/Sex: MALE, FEMALE, Metabolic Activation: NONE",active; positive (structural changes)
same,mutagenic call,"End Point: IN VITRO CHROMOSOMAL ABERRATIONS, Test System: HUMAN PERIPHERAL LYMPHOCYTES, Species: HUMAN, Strain/Sex: MALE, FEMALE, Metabolic Activation: RAT, LIVER, S-9, AROCLOR 1254 (5%)",active; positive (structural changes)
same,mutagenic call,"End Point: IN VITRO CHROMOSOMAL ABERRATIONS, Test System: HUMAN PERIPHERAL LYMPHOCYTES, Species: HUMAN, Strain/Sex: MALE, FEMALE, Metabolic Activation: RAT, LIVER, S-9, AROCLOR 1254 (10%)",active; positive (structural changes)
same,mutagenic call,"End Point: IN VITRO MICRONUCLEUS, Test System: L5178Y MOUSE LYMPHOMA (TK+/-), Metabolic Activation: NONE",active; positive (increase in micronucleated cells)
same,mutagenic call,"End Point: IN VITRO MICRONUCLEUS, Test System: L5178Y MOUSE LYMPHOMA (TK+/-), Metabolic Activation: RAT, LIVER, S-9, AROCLOR 1254",active; positive (increase in micronucleated cells)
same,mutagenic call,"End Point: IN VIVO MICRONUCLEUS, Test System: BONE MARROW POLYCHROMATIC ERYTHROCYTES, Species: RAT, Strain/Sex: SPRAGUE-DAWLEY/MALE, FEMALE",active; positive
same,mutagenic call,"End Point: IN VIVO MICRONUCLEUS, Test System: BONE MARROW POLYCHROMATIC ERYTHROCYTES, Species: RAT, Strain/Sex: SPRAGUE-DAWLEY/MALE, FEMALE, Route: ORAL",active; positive
same,mutagenic call,"Test System: AMES SALMONELLA TYPHIMURIUM, Strain/Indicator: TA98 (DNP-6), Metabolic Activation: NONE, Method: DESICCATOR",active; positive
same,mutagenic call,"Test System: AMES SALMONELLA TYPHIMURIUM, Strain/Indicator: TA98 (DNP-6), Metabolic Activation: NONE, Method: STANDARD PLATE",active; positive
same,mutagenic call,"Test System: AMES SALMONELLA TYPHIMURIUM, Strain/Indicator: TA98 (DNP-6), Metabolic Activation: RAT LIVER S-9, AROCLOR 1254, 10% (W/V), Method: DESICCATOR",active; positive
same,mutagenic call,"Test System: AMES SALMONELLA TYPHIMURIUM, Strain/Indicator: TA98 (DNP-6), Metabolic Activation: RAT LIVER S-9, AROCLOR 1254, 10% (W/V), Method: STANDARD PLATE",active; positive
same,mutagenic call,"Test System: AMES SALMONELLA TYPHIMURIUM, Strain/Indicator: TA98 (NR), Metabolic Activation: NONE, Method: DESICCATOR",inactive; negative
same,mutagenic call,"Test System: AMES SALMONELLA TYPHIMURIUM, Strain/Indicator: TA98 (NR), Metabolic Activation: NONE, Method: STANDARD PLATE",inactive; negative
same,mutagenic call,"Test System: AMES SALMONELLA TYPHIMURIUM, Strain/Indicator: TA98 (NR), Metabolic Activation: RAT LIVER S-9, AROCLOR 1254, 10% (W/V), Method: DESICCATOR",inactive; negative
same,mutagenic call,"Test System: AMES SALMONELLA TYPHIMURIUM, Strain/Indicator: TA98 (NR), Metabolic Activation: RAT LIVER S-9, AROCLOR 1254, 10% (W/V), Method: STANDARD PLATE",inactive; negative
same,mutagenic call,"Test System: AMES SALMONELLA TYPHIMURIUM, Strain/Indicator: TA98, Metabolic Activation: NONE, Method: DESICCATOR",active; positive
same,mutagenic call,[1],active; positive
same,mutagenic call,"Test System: AMES SALMONELLA TYPHIMURIUM, Strain/Indicator: TA98, Metabolic Activation: RAT LIVER S-9, AROCLOR 1254, 10% (W/V), Method: DESICCATOR",active; positive
same,mutagenic call,"Test System: AMES SALMONELLA TYPHIMURIUM, Strain/Indicator: TA98, Metabolic Activation: RAT LIVER S-9, AROCLOR 1254, 10% (W/V), Method: STANDARD PLATE",active; positive
same,mutagenic call,[2],active; positive
same,mutagenic call,"Test System: AMES SALMONELLA TYPHIMURIUM, Strain/Indicator: TA102, Metabolic Activation: NONE, Method: STANDARD PLATE",active; positive
same,mutagenic call,"Test System: AMES SALMONELLA TYPHIMURIUM, Strain/Indicator: TA102, Metabolic Activation: RAT, LIVER, S-9, AROCLOR 1254, Method: STANDARD PLATE",active; positive
Nc1ccc([N+](=O)[O-])cc1[N+](=O)[O-],mutagenic call,"End Point: IN VITRO CHROMOSOMAL ABERRATIONS, Test System: CHL CELLS, Metabolic Activation: NONE",inactive; negative
same,mutagenic call,"End Point: IN VITRO CHROMOSOMAL ABERRATIONS, Test System: CHL CELLS, Metabolic Activation: RAT, LIVER, S-9, SODIUM PHENOBARBITAL AND 5,6-BENZOFLAVONE",active; positive (structural changes)
same,mutagenic call,"End Point: IN VITRO CHROMOSOMAL ABERRATIONS, Test System: HUMAN PERIPHERAL LYMPHOCYTES, Metabolic Activation: NONE",active; positive
same,mutagenic call,[3],active; positive
same,mutagenic call,[1],active; positive
same,mutagenic call,[2],active; positive
same,mutagenic call,"Test System: AMES SALMONELLA TYPHIMURIUM, Strain/Indicator: TA98, Metabolic Activation: RAT, LIVER, S-9, KANECHLOR 500, Method: PREINCUBATION",active; positive
same,mutagenic call,[4],active; positive
same,mutagenic call,[5],inactive; negative
same,mutagenic call,[6],inactive; negative
same,mutagenic call,"Test System: AMES SALMONELLA TYPHIMURIUM, Strain/Indicator: TA100, Metabolic Activation: RAT, LIVER, S-9, KANECHLOR 500, Method: PREINCUBATION",active; positive
same,mutagenic call,"Test System: UDS RODENT HEPATOCYTES, Strain/Indicator: THY INCORP (NON-S-PHASE), Metabolic Activation: NONE, Method: AUTORADIOGRAPHY",inactive; negative
N[C@@H](CS/C=C/CCl)C(=O)O,mutagenic call,[3],inactive; negative
same,mutagenic call,[4],inactive; negative
same,mutagenic call,"Test System: AMES SALMONELLA TYPHIMURIUM, Strain/Indicator: TA2638, Metabolic Activation: NONE, Method: PREINCUBATION",inactive; negative
CC(=O)ON(C(C)=O)c1ccccc1C,mutagenic call,[1],inactive; negative
same,mutagenic call,[2],inactive; negative
same,mutagenic call,[5],inactive; negative
same,mutagenic call,[6],inactive; negative
O=C(O)/C(Cl)=C(\CO)C(Cl)Cl,mutagenic call,"Test System: AMES SALMONELLA TYPHIMURIUM, Strain/Indicator: TA97, Metabolic Activation: NONE, Method: STANDARD PLATE",active; positive
same,mutagenic call,"Test System: AMES SALMONELLA TYPHIMURIUM, Strain/Indicator: TA97, Metabolic Activation: RAT, LIVER, S-9, PHENOBARBITAL, Method: STANDARD PLATE",inactive; negative
same,mutagenic call,[1],inactive; negative
same,mutagenic call,"Test System: AMES SALMONELLA TYPHIMURIUM, Strain/Indicator: TA98, Metabolic Activation: RAT, LIVER, S-9, PHENOBARBITAL, Method: STANDARD PLATE",inactive; negative
same,mutagenic call,[5],active; positive
same,mutagenic call,"Test System: AMES SALMONELLA TYPHIMURIUM, Strain/Indicator: TA100, Metabolic Activation: RAT, LIVER, S-9, PHENOBARBITAL, Method: STANDARD PLATE",inactive; negative
COC(=O)[C@H](C)CN=[N+]=[N-],mutagenic call,"Test System: AMES SALMONELLA TYPHIMURIUM, Strain/Indicator: TA100, Metabolic Activation: RAT, LIVER, S-9, PCB, Method: PREINCUBATION",active; positive
c1ccc(CC2CO2)cc1 (stereo not drawn),mutagenic call,[4],active; positive
same,mutagenic call,[5],active; positive
same,mutagenic call,"Test System: AMES SALMONELLA TYPHIMURIUM, Strain/Indicator: TA1535, Metabolic Activation: NONE, Method: PREINCUBATION",active; positive
same,mutagenic call,"Test System: AMES SALMONELLA TYPHIMURIUM, Strain/Indicator: TA1535, Metabolic Activation: NONE, Method: STANDARD PLATE",active; positive
O=C(NCc1ccccc1)C(Br)c1ccccc1 (stereo not drawn),mutagenic call,"Test System: AMES SALMONELLA TYPHIMURIUM, Strain/Indicator: TA100, Metabolic Activation: MOUSE, LIVER, S-9, AROCLOR 1254, Method: STANDARD PLATE",inactive; negative
same,mutagenic call,[5],inactive; negative
Fc1cccc2c1ccc1cccnc12,mutagenic call,"Test System: AMES SALMONELLA TYPHIMURIUM, Strain/Indicator: TA100, Metabolic Activation: RAT, LIVER, S-9, PHENOBARBITAL AND 5,6-BENZOFLAVONE, Method: PREINCUBATION",active; positive
ClC1CO1 (stereo not drawn),mutagenic call,"Test System: CHINESE HAMSTER V-79, Strain/Indicator: V-79/8-AZAGUANINE, Metabolic Activation: NONE, Method: STANDARD PLATE",active; positive
same,mutagenic call,"Test System: CHINESE HAMSTER V-79, Strain/Indicator: V-79/OUABAIN, Metabolic Activation: NONE, Method: STANDARD PLATE",active; positive
same,mutagenic call,"Test System: HUMAN H2E1 CELLS, Strain/Indicator: HPRT/6-THIOGUANINE, Metabolic Activation: NONE, Method: SUSPENSION/MICROTITER PLATE",active; positive
